Test results reported in PubChem BioAssay AID248 (DTP/NCI, 2004).
Inconclusive results and toxic doses are left out. No stated cut-off is given here; in the data, active means T/C of 150% or more; inactive means T/C below 125%.

Test system: L1210 leukemia ip in BDF1 mice, survival T/C
Test: NCI In Vivo Anticancer Drug Screen. Data for tumor model L1210 Leukemia (intraperitoneal) in B6D2F1 (BDF1) mice
Conditions: endpoint: mean survival time, higher = longer survival
In short: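 Value reflects the ratio of survival in compound-treated mice to survival in vehicle-treated controls, with both groups carrying the same transplanted tumor.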

[1] = dose: 100.0 mg/kg/injection, schedule: Q04DX003 (ip), vehicle: saline
[2] = dose: 200.0 mg/kg/injection, schedule: Q04DX003 (ip), vehicle: saline
[3] = dose: 400.0 mg/kg/injection, schedule: Q04DX003 (ip), vehicle: saline

Measured: T/C

C[C@H]1C[C@@H]2[C@H]([C@@H](O)C[C@@]3(C)[C@H]2CC[C@]3(O)C(=O)CF)[C@@]2(C)C=CC(=O)C=C12
inactive: dose: 62.0 mg/kg/injection, schedule: Q01DX015 (sc), vehicle: steriod suspending solution 97 % of control | dose: 100.0 mg/kg/injection, schedule: Q04DX003 (sc), vehicle: Klucel (hydroxypropylcellulose) (HPC) 101 % of control | dose: 125.0 mg/kg/injection, schedule: Q01DX015 (sc), vehicle: steriod suspending solution 94 % of control | dose: 200.0 mg/kg/injection, schedule: Q04DX003 (sc), vehicle: Klucel (hydroxypropylcellulose) (HPC) 102 % of control | dose: 250.0 mg/kg/injection, schedule: Q01DX015 (sc), vehicle: steriod suspending solution 102 % of control | dose: 400.0 mg/kg/injection, schedule: Q04DX003 (sc), vehicle: Klucel (hydroxypropylcellulose) (HPC) 115 % of control | dose: 500.0 mg/kg/injection, schedule: Q01DX015 (sc), vehicle: steriod suspending solution 102 % of control

OC1CCCCC1C1CCCCC1 (configuration not stated)
inactive: dose: 50.0 mg/kg/injection, schedule: Q01DX009 (ip), vehicle: saline with Tween-80 94 % of control | dose: 100.0 mg/kg/injection, schedule: Q01DX009 (ip), vehicle: saline with Tween-80 94 % of control | dose: 100.0 mg/kg/injection, schedule: Q04DX002 (ip), vehicle: saline 121 % of control | dose: 300.0 mg/kg/injection, schedule: Q04DX002 (ip), vehicle: saline 107 % of control | dose: 400.0 mg/kg/injection, schedule: Q04DX002 (ip), vehicle: saline 100 % of control

c1ccc2sc(SCCSc3nc4ccccc4s3)nc2c1
inactive: dose: 6.25 mg/kg/injection, schedule: Q01DX009 (ip), vehicle: saline with Tween-80 93 % of control | dose: 6.25 mg/kg/injection, schedule: Q04DX002 (ip), vehicle: saline with Tween-80 100 % of control | dose: 12.5 mg/kg/injection, schedule: Q01DX009 (ip), vehicle: saline with Tween-80 97 % of control | dose: 12.5 mg/kg/injection, schedule: Q04DX002 (ip), vehicle: saline with Tween-80 89 % of control | dose: 25.0 mg/kg/injection, schedule: Q01DX009 (ip), vehicle: saline with Tween-80 95 % of control | dose: 25.0 mg/kg/injection, schedule: Q04DX002 (ip), vehicle: saline with Tween-80 89 % of control

NC(=O)N/N=C1\CC2CC1C1C=CCC21 (configuration not stated)
inactive: dose: 50.0 mg/kg/injection, schedule: Q01DX001 (ip), vehicle: carboxymethylcellulose (CMC) 102 % of control | dose: 100.0 mg/kg/injection, schedule: Q01DX001 (ip), vehicle: carboxymethylcellulose (CMC) 93 % of control | dose: 200.0 mg/kg/injection, schedule: Q01DX001 (ip), vehicle: carboxymethylcellulose (CMC) 102 % of control

CSc1nc2[nH]cc(C(=O)O)c(=O)c2c(=O)[nH]1
inactive: [1] 104 % of control | [2] 101 % of control | [3] 91 % of control

CC1CN(c2ccncc2N)CCN1c1ccc(Cl)cc1 (configuration not stated)
inactive: dose: 100.0 mg/kg/injection, schedule: Q04DX003 (ip), vehicle: saline with Tween-80 110 % of control | dose: 200.0 mg/kg/injection, schedule: Q04DX003 (ip), vehicle: saline with Tween-80 105 % of control | dose: 400.0 mg/kg/injection, schedule: Q04DX003 (ip), vehicle: saline with Tween-80 105 % of control

OC1(c2ccccc2)CCC1
inactive: dose: 62.0 mg/kg/injection, schedule: Q01DX009 (ip), vehicle: saline with Tween-80 91 % of control | dose: 125.0 mg/kg/injection, schedule: Q01DX009 (ip), vehicle: saline with Tween-80 99 % of control | dose: 250.0 mg/kg/injection, schedule: Q01DX009 (ip), vehicle: saline with Tween-80 97 % of control

CCSCCC(C)(N)C(=O)O (configuration not stated)
inactive: dose: 100.0 mg/kg/injection, schedule: Q04DX002 (ip), vehicle: Klucel (hydroxypropylcellulose) (HPC) 97 % of control | dose: 200.0 mg/kg/injection, schedule: Q04DX002 (ip), vehicle: Klucel (hydroxypropylcellulose) (HPC) 93 % of control | dose: 400.0 mg/kg/injection, schedule: Q04DX002 (ip), vehicle: Klucel (hydroxypropylcellulose) (HPC) 89 % of control

CCOP(=O)(OCC)c1cccc(N)c1
inactive: [1] 100 % of control | [2] 87 % of control | [3] 100 % of control

S=c1nc[nH]c2c1ncn2C1CCCCC1
inactive: dose: 47.0 mg/kg/injection, schedule: Q01DX Z (ip), vehicle: carboxymethylcellulose (CMC) 98 % of control | dose: 94.0 mg/kg/injection, schedule: Q01DX Z (ip), vehicle: carboxymethylcellulose (CMC) 98 % of control | dose: 94.0 mg/kg/injection, schedule: Q01DX Z (oral), vehicle: carboxymethylcellulose (CMC) 108 % of control | dose: 188.0 mg/kg/injection, schedule: Q01DX Z (ip), vehicle: carboxymethylcellulose (CMC) 106 % of control | dose: 188.0 mg/kg/injection, schedule: Q01DX Z (oral), vehicle: carboxymethylcellulose (CMC) 98 % of control | dose: 376.0 mg/kg/injection, schedule: Q01DX Z (ip), vehicle: carboxymethylcellulose (CMC) 102 % of control | dose: 376.0 mg/kg/injection, schedule: Q01DX Z (oral), vehicle: carboxymethylcellulose (CMC) 110 % of control | dose: 752.0 mg/kg/injection, schedule: Q01DX Z (oral), vehicle: carboxymethylcellulose (CMC) 106 % of control

CCCCCCOC(=O)C(N)Cc1ccc(N(CCCl)CCCl)cc1 (configuration not stated)
inactive: dose: 2.8 mg/kg/injection, schedule: Q01DX009 (ip), vehicle: other 110 % of control | dose: 5.6 mg/kg/injection, schedule: Q01DX001 (ip), vehicle: other 110 % of control | dose: 5.6 mg/kg/injection, schedule: Q01DX009 (ip), vehicle: other 106 % of control | dose: 11.25 mg/kg/injection, schedule: Q01DX001 (ip), vehicle: other 110 % of control | dose: 11.25 mg/kg/injection, schedule: Q01DX009 (ip), vehicle: other 116 % of control | dose: 22.5 mg/kg/injection, schedule: Q01DX001 (ip), vehicle: other 121 % of control

Cc1cc(N=Nc2cccc([N+](=O)[O-])c2)cc(C(=O)O)c1O
inactive: dose: 6.25 mg/kg/injection, schedule: Q01DX001 (ip), vehicle: Klucel (hydroxypropylcellulose) (HPC) 102 % of control | dose: 12.5 mg/kg/injection, schedule: Q01DX001 (ip), vehicle: Klucel (hydroxypropylcellulose) (HPC) 94 % of control | dose: 25.0 mg/kg/injection, schedule: Q01DX001 (ip), vehicle: Klucel (hydroxypropylcellulose) (HPC) 89 % of control

CCCCNP(=S)(NCCCC)c1ccccc1
inactive: dose: 100.0 mg/kg/injection, schedule: Q01DX001 (ip), vehicle: saline 98 % of control | dose: 200.0 mg/kg/injection, schedule: Q01DX001 (ip), vehicle: saline 93 % of control | dose: 400.0 mg/kg/injection, schedule: Q01DX001 (ip), vehicle: saline 95 % of control

COc1ccc2c(c1)c1c(C)c3cnccc3c(C)c1n2CC1CO1 (configuration not stated)
inactive: dose: 4.7 mg/kg/injection, schedule: Q01DX009 (ip), vehicle: saline with Tween-80 100 % of control | dose: 9.4 mg/kg/injection, schedule: Q01DX009 (ip), vehicle: saline with Tween-80 102 % of control | dose: 18.75 mg/kg/injection, schedule: Q04DX003 (ip), vehicle: saline with Tween-80 116 % of control | dose: 37.5 mg/kg/injection, schedule: Q04DX003 (ip), vehicle: saline 120 % of control | dose: 75.0 mg/kg/injection, schedule: Q04DX003 (ip), vehicle: saline 91 % of control

O=S(=O)(Cc1ccc(Cl)cc1)Cc1ccc(Cl)cc1
inactive: dose: 100.0 mg/kg/injection, schedule: Q01DX009 (ip), vehicle: saline sonified 93 % of control | dose: 100.0 mg/kg/injection, schedule: Q04DX003 (ip), vehicle: Klucel (hydroxypropylcellulose) (HPC) 95 % of control | dose: 200.0 mg/kg/injection, schedule: Q01DX009 (ip), vehicle: saline sonified 93 % of control | dose: 200.0 mg/kg/injection, schedule: Q04DX003 (ip), vehicle: Klucel (hydroxypropylcellulose) (HPC) 92 % of control | dose: 400.0 mg/kg/injection, schedule: Q01DX009 (ip), vehicle: saline sonified 93 % of control | dose: 400.0 mg/kg/injection, schedule: Q04DX003 (ip), vehicle: Klucel (hydroxypropylcellulose) (HPC) 103 % of control
